Data taken from publication PMC12495412, “Coumarin/nitrogen-bearing heterocyclic hybrid-loaded electrospun PMMA/PVP nanofibrous scaffolds for accelerating topical wound healing rates: synthesis and in vitro bio-evaluation” (RSC Advances, 2025).
Marks after values point to notes of the source that are not given here.

How the values were obtained:
Type in all cases: cell-based
[1] = tested on: multidrug-resistant human pathogens; experiment: Agar-well diffusion of formulations, whole panel; conditions: all human pathogens investigated
Experimental: (§1) The antimicrobial qualities of formulations were evaluated in this study using a variety of techniques. The formulations including 8 PMMA and 2 PVP, which contained varying doses of drug A (0.5% = T1, 1% = T2, 3% = T3, and 5% = T4) or drug B (0.5% = T5, 1% = T6, 3% = T7, and 5% = T8), as well as a combination of 2.5% of drug A and 2.5% of drug B (T9) were assessed. The tested human pathogens were cultivated in a nutritional broth medium containing 0.5% peptone, 0.3% yeast extract, 0.2% beef extract, 0.1% glucose, and 0.5% NaCl in accordance with 0.5 McFarland turbidity criteria.[25] To carry out the agar-well diffusion analysis, microbial cultures (100 μL) were spread on nutrient agar plates using sterile cotton swabs. After drilling each well with a sterile cork-borer of 5 mm in diameter, 50 μL of the tested formulations and the control (composed of 8 PMMA and 2 PVP) were loaded. Agar plates were thereafter left to incubate at 37 °C for an entire day. The inhibitory zone that surrounds each well was measured in millimeters (mm) using a ruler.[26]

Pseudomonas aeruginosa [2] = experiment: Agar-well diffusion of formulations; conditions: 50 μL per 5 mm well, 37 °C
Experimental: as §1

Klebsiella pneumoniae [3] = experiment: Agar-well diffusion of formulations; conditions: 50 μL per 5 mm well, 37 °C
Experimental: as §1

Staphylococcus aureus [4] = experiment: Agar-well diffusion of formulations; conditions: 50 μL per 5 mm well, 37 °C
Experimental: as §1

[5] = tested on: Staphylococcus epidermidis; experiment: Agar-well diffusion of formulations; conditions: 50 μL per 5 mm well, 37 °C
Experimental: as §1

Bacillus cereus [6] = experiment: Agar-well diffusion of formulations; conditions: 50 μL per 5 mm well, 37 °C
Experimental: as §1

Escherichia coli [7] = experiment: Agar-well diffusion of formulations; conditions: 50 μL per 5 mm well, 37 °C
Experimental: as §1

Salmonella paratyphi [8] = experiment: Agar-well diffusion of formulations; conditions: 50 μL per 5 mm well, 37 °C
Experimental: as §1

Bacillus subtilis [9] = experiment: Agar-well diffusion of formulations; conditions: 50 μL per 5 mm well, 37 °C
Experimental: as §1

Candida glabrata [10] = experiment: Agar-well diffusion of formulations; conditions: 50 μL per 5 mm well, 37 °C
Experimental: as §1

Candida krusei [11] = experiment: Agar-well diffusion of formulations; conditions: 50 μL per 5 mm well, 37 °C
Experimental: as §1

Candida parapsilosis [12] = experiment: Agar-well diffusion of formulations; conditions: 50 μL per 5 mm well, 37 °C
Experimental: as §1

Candida albicans [13] = experiment: Agar-well diffusion of formulations; conditions: 50 μL per 5 mm well, 37 °C
Experimental: as §1

Pseudomonas aeruginosa [14] = experiment: Biofilm inhibition test (spectrophotometric); conditions: 24 h, 37 °C, OD vs untreated
Experimental: (§2) Additionally, a spectrophotometric antibiofilm assay was utilized to determine whether the evaluated formulations might inhibit the growth of pathogens. Fresh nutritional broth was inoculated with each pathogen separately, and this mixture was then incubated at 37 °C at 200 rpm. The optical density (OD) at 600 nm was measured over a 6 h incubation period, allowing for an estimation of the starting microbe's exponential phase (3 × 10^7 CFU mL^−1). To produce treated cultures, 900 μL of planktonic cultures were collected aseptically with 100 μL of each formulation. Furthermore, untreated (formula-free) cultures of pathogens were grown as controls. The cultures were then incubated for 24 hours at 200 rpm and 37 °C. Through spectroscopic evaluation of microbial turbidity, the inhibitory effects of the examined formulations were determined.[27] By comparing the OD of the treated sample with the matching controls, anti-biofilm percentages for each formula were computed.[28]

Klebsiella pneumoniae [15] = experiment: Biofilm inhibition test (spectrophotometric); conditions: 24 h, 37 °C, OD vs untreated
Experimental: as §2

Staphylococcus aureus [16] = experiment: Biofilm inhibition test (spectrophotometric); conditions: 24 h, 37 °C, OD vs untreated
Experimental: as §2

[17] = tested on: Staphylococcus epidermidis; experiment: Biofilm inhibition test (spectrophotometric); conditions: 24 h, 37 °C, OD vs untreated
Experimental: as §2

Bacillus cereus [18] = experiment: Biofilm inhibition test (spectrophotometric); conditions: 24 h, 37 °C, OD vs untreated
Experimental: as §2

Escherichia coli [19] = experiment: Biofilm inhibition test (spectrophotometric); conditions: 24 h, 37 °C, OD vs untreated
Experimental: as §2

Salmonella paratyphi [20] = experiment: Biofilm inhibition test (spectrophotometric); conditions: 24 h, 37 °C, OD vs untreated
Experimental: as §2

Bacillus subtilis [21] = experiment: Biofilm inhibition test (spectrophotometric); conditions: 24 h, 37 °C, OD vs untreated
Experimental: as §2

Candida glabrata [22] = experiment: Biofilm inhibition test (spectrophotometric); conditions: 24 h, 37 °C, OD vs untreated
Experimental: as §2

Candida krusei [23] = experiment: Biofilm inhibition test (spectrophotometric); conditions: 24 h, 37 °C, OD vs untreated
Experimental: as §2

Candida parapsilosis [24] = experiment: Biofilm inhibition test (spectrophotometric); conditions: 24 h, 37 °C, OD vs untreated
Experimental: as §2

Candida albicans [25] = experiment: Biofilm inhibition test (spectrophotometric); conditions: 24 h, 37 °C, OD vs untreated
Experimental: as §2

For `O=C(Nc1ccc(Nc2ccnc3cc(Cl)ccc23)cc1)c1cc2ccccc2oc1=O` [Compound C2], which “Antimicrobial effect” value [1] is on record?
The value was “neither C1 nor C2 controls have any effect”.

And the Inhibition zone diameters (Pseudomonas aeruginosa [2])?
Its Inhibition zone diameters is 0 mm.

And the Inhibition zone diameters (Klebsiella pneumoniae [3])?
Its Inhibition zone diameters is 0 mm.

And the Inhibition zone diameters (Staphylococcus aureus [4])?
The Inhibition zone diameters was 0 mm.

And the Inhibition zone diameters [5]?
The Inhibition zone diameters was 0 mm.

And the Inhibition zone diameters (Bacillus cereus [6])?
Its Inhibition zone diameters is 0 mm.

What about the Inhibition zone diameters (Escherichia coli [7]) of the same molecule?
The Inhibition zone diameters was 0 mm.

What about the Inhibition zone diameters (Salmonella paratyphi [8]) of the same molecule?
Its Inhibition zone diameters is 0 mm.

And the Inhibition zone diameters (Bacillus subtilis [9])?
Its Inhibition zone diameters is 0 mm.

What about the Inhibition zone diameters (Candida glabrata [10]) of the same molecule?
The Inhibition zone diameters was 0 mm.

And the Inhibition zone diameters (Candida krusei [11])?
The Inhibition zone diameters was 0 mm.

What about the Inhibition zone diameters (Candida parapsilosis [12]) of the same molecule?
The Inhibition zone diameters was 0 mm.

And the Inhibition zone diameters (Candida albicans [13])?
Its Inhibition zone diameters is 0 mm.

What about the Biofilm reduction (Pseudomonas aeruginosa [14]) of the same molecule?
Its Biofilm reduction is 3.65 ± 0.47^i %.

What about the Biofilm reduction (Klebsiella pneumoniae [15]) of the same molecule?
Its Biofilm reduction is 2.03 ± 0.77^i %.

And the Biofilm reduction (Staphylococcus aureus [16])?
Its Biofilm reduction is 11.31 ± 0.17^i %.

And the Biofilm reduction [17]?
Its Biofilm reduction is 8.29 ± 0.19^i %.

What about the Biofilm reduction (Bacillus cereus [18]) of the same molecule?
Its Biofilm reduction is 10.32 ± 0.19^i %.

What about the Biofilm reduction (Escherichia coli [19]) of the same molecule?
The Biofilm reduction was 8.31 ± 0.75^i %.

And the Biofilm reduction (Salmonella paratyphi [20])?
The Biofilm reduction was 7.24 ± 0.38^i %.

What about the Biofilm reduction (Bacillus subtilis [21]) of the same molecule?
The Biofilm reduction was 8.41 ± 0.31^i %.

What about the Biofilm reduction (Candida glabrata [22]) of the same molecule?
The Biofilm reduction was 6.48 ± 1.87^i %.

What about the Biofilm reduction (Candida krusei [23]) of the same molecule?
The Biofilm reduction was 5.24 ± 1.22^i %.

What about the Biofilm reduction (Candida parapsilosis [24]) of the same molecule?
Its Biofilm reduction is 3.87 ± 0.14^i %.

What about the Biofilm reduction (Candida albicans [25]) of the same molecule?
Its Biofilm reduction is 3.21 ± 0.99^i %.
